2 compounds from ChEMBL document CHEMBL5543126, “Combinatorial Ubiquitination REal-time PROteolysis (CURE-PROs): A Modular Platform for Generating Reversible, Self-Assembling Bifunctional Targeted Degraders” (J Med Chem, 2024) can be followed below.

The target in experiment [1] is T1, von Hippel-Lindau disease tumor suppressor/Bromodomain-containing protein 4 (Homo sapiens, UniProt O60885+P40337). Put plainly: PROTAC activity at BRD4/VHL in human MCF7 cells assessed as reduction in BRD4 level incubated for 24 hrs in presence of […]-1-((S)-2-(2,3-dihydroxybenzamido)-3,3-dimethylbutanoyl)-4-hydroxy-N-(4-(4-methylthiazol-5-yl)benzyl)pyrrolidine-2-carboxamide by Western blot based Combinatorial Ubiquitination Real-time PROteolysis analysis. It is filed as cell-based. A general note: A western blot detects proteins with antibodies after separation by electrophoresis.

Experiment [2] has as its target Protein cereblon/Bromodomain-containing protein 4 (Homo sapiens) (UniProt O60885+Q96SW2). Put plainly: PROTAC activity at BRD4/CRBN in human HeLa cells assessed as induction of BRD4 degradation at 10 uM incubated for 24 hrs in presence of CRBN based ligand (1S,4R,5R,6S)-N-((2-(2,6-dioxopiperidin-3-yl)-1,3-dioxoisoindolin-4-yl)methyl)-5,6-dihydroxybicyclo[2.2.1]heptane-2-carboxamide by Western blot analysis based Combinatorial Ubiquitination Real-time PROteolysis analysis. It counts as cell-based.

Experiment [3] deals with T1, von Hippel-Lindau disease tumor suppressor/Bromodomain-containing protein 4. Put plainly: PROTAC activity at VHL/BRD4 in HEK293 cells assessed as induction of BRD4 degradation by measuring degradation rate at 10 uM measured every 15 mins for 24 hrs in presence of VHL based ligand (2S,4R)-1-((S)-2-(2,3-dihydroxybenzamido)-3,3-dimethylbutanoyl)-4-hydroxy-N-(4-(4-methylthiazol-5-yl)benzyl)pyrrolidine-2-carboxamide by HiBiT based Combinatorial Ubiquitination Real-time PROteolysis analysis. It counts as cell-based. A general note: The HiBiT peptide binds its large partner to form an active luciferase.

Experiment [4] shares this target. Put plainly: PROTAC activity at BRD4/VHL in human MCF7 cells assessed as induction of BRD4 degradation by measuring residual activity at 300 nM incubated for 24 hrs in presence of VHL based ligand (2S,4R)-1-((S)-2-(2,3-dihydroxybenzamido)-3,3-dimethylbutanoyl)-4-hydroxy-N-(4-(4-methylthiazol-5-yl)benzyl)pyrrolidine-2-carboxamide by Western blot based Combinatorial Ubiquitination Real-time PROteolysis analysis. It counts as cell-based.

For experiment [5] the target is unchanged. Put plainly: PROTAC activity at BRD4/VHL in human MCF7 cells assessed as induction of BRD4 degradation by measuring residual activity at 100 nM incubated for 24 hrs in presence of 1 uM VHL based ligand (2S,4R)-1-((S)-2-(2,3-dihydroxybenzamido)-3,3-dimethylbutanoyl)-4-hydroxy-N-(4-(4-methylthiazol-5-yl)benzyl)pyrrolidine-2-carboxamide by Western blot based Combinatorial Ubiquitination Real-time PROteolysis analysis. It counts as cell-based.

For experiment [6] the target is unchanged. Put plainly: PROTAC activity at VHL/BRD4 in HEK293 cells assessed as induction of BRD4 degradation by measuring degradation rate at 1 uM measured every 15 mins for 24 hrs in presence of BRD4 based ligand ((4S)-6-(4-chlorophenyl)-4-(2-(ethylamino)-2-oxoethyl)-1-methyl4Hbenzo[f][1,2,4]triazolo [4,3-a][1,4]diazepin-8-yl)boronic acid by HiBiT based Combinatorial Ubiquitination Real-time PROteolysis analysis. It is filed as cell-based.

Experiment [7] has the same target. Put plainly: PROTAC activity at BRD4/VHL in human MCF7 cells assessed as induction of BRD4 degradation by measuring residual activity at 3 uM incubated for 24 hrs in presence of BRD4 based ligand ((4S)-6-(4-chlorophenyl)-4-(2-(ethylamino)-2-oxoethyl)-1-methyl4Hbenzo[f][1,2,4]triazolo [4,3-a][1,4]diazepin-8-yl)boronic acid by Western blot based Combinatorial Ubiquitination Real-time PROteolysis analysis. It counts as cell-based.

For experiment [8] the target is unchanged. Put plainly: PROTAC activity at BRD4/VHL in human MCF7 cells assessed as induction of BRD4 degradation by measuring residual activity at 10 uM incubated for 24 hrs in presence of BRD4 based ligand ((4S)-6-(4-chlorophenyl)-4-(2-(ethylamino)-2-oxoethyl)-1-methyl4Hbenzo[f][1,2,4]triazolo [4,3-a][1,4]diazepin-8-yl)boronic acid by Western blot based Combinatorial Ubiquitination Real-time PROteolysis analysis. It is filed as cell-based.

Experiment [9] has the same target. Put plainly: PROTAC activity at BRD4/VHL in human MCF7 cells assessed as induction of BRD4 degradation by measuring residual activity at 30 nM incubated for 24 hrs in presence of 10 uM BRD4 based ligand ((4S)-6-(4-chlorophenyl)-4-(2-(ethylamino)-2-oxoethyl)-1-methyl4Hbenzo[f][1,2,4]triazolo [4,3-a][1,4]diazepin-8-yl)boronic acid by Western blot based Combinatorial Ubiquitination Real-time PROteolysis analysis. It is filed as cell-based.

The subject of the next experiment is MV4-11. Put plainly: Antitumor activity against human MV4-11 cells xenografted in nude mouse assessed as reduction in BRD4 level in tumor at 10 mg/kg, ip administered for 4 hrs and measured at 9 to 12 hrs in presence of BRD4 based ligand ((4S)-6-(4-chlorophenyl)-4-(2-(ethylamino)-2-oxoethyl)-1-methyl4Hbenzo[f][1,2,4]triazolo [4,3-a][1,4]diazepin-8-yl)boronic acid. It counts as functional, organism-based. Conditions: time 9-12 hrs. Background: Xenograft models place foreign cells or tissue in a host animal.

Active and inactive are the calls of the source. The rule behind the calls is not given here.

T1 sequence (P40337 whole entry, looked up, other chains not shown): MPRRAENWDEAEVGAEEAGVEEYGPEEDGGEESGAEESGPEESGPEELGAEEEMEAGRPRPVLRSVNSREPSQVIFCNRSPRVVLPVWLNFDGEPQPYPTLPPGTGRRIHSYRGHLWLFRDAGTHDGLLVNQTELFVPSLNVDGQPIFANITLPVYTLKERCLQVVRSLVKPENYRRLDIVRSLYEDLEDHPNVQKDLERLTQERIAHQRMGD
Chain of Protein cereblon/Bromodomain-containing protein 4 (Homo sapiens) (Q96SW2 whole entry, looked up, other chains not shown): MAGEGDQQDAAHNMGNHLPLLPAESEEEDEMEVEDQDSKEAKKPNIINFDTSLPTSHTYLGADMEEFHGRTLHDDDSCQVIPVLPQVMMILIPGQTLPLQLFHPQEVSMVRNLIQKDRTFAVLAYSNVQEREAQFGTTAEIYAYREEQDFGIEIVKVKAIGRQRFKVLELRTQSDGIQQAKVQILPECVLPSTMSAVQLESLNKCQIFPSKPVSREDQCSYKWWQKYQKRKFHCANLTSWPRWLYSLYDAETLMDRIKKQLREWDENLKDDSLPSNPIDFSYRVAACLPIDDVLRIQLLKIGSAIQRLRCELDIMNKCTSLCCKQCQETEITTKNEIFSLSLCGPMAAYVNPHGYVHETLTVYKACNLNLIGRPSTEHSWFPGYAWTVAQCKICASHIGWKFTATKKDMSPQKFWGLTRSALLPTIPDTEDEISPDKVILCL

For `CCNC(=O)C[C@@H]1N=C(c2ccc(Cl)cc2)c2cc(B(O)O)ccc2-n2c(C)nnc21`, in experiment [1], the outcome was Active. Also, the DC50 in experiment [1] turned out to be 358 nM. Also, the outcome in [2] was inactive. Moreover, the Activity is 4.18 h⁻¹ in experiment [3], 100% in experiment [4] and 101% in experiment [5].

`Cc1ncsc1-c1ccc(CNC(=O)[C@@H]2C[C@@H](O)CN2C(=O)[C@@H](NC(=O)c2cccc(O)c2O)C(C)(C)C)cc1`: the Activity in [6] turned out to be 0.548 h⁻¹; in experiment [7], 73%; in experiment [8] it was 95%; in [9] it was 76%. In the experiment on MV4-11, the outcome was Active.
